US6171786A, “Methods for preventing multidrug resistance in cancer cells” (priority 1996, dated 2001)
Entries after “also recorded” stand apart in the source; their conditions may differ. Like-named read-outs stand apart in the source and are kept apart here.

Tests used:
MDR1 expression [1] = assay: Inhibition of cytotoxic drug-induced MDR1 expression by protein kinase inhibitors (cDNA-PCR); details: for inhibition of MDR1 induction by cytotoxic drugs: concentration not stated
Description: Cells were plated in 6-well Falcon tissue culture plates at 3,300 cells per well, and incubated in the appropriate concentrations of drugs. Each of the protein kinase inhibitors to be tested were added at the appropriate final concentration 45 minutes prior to MDR1 induction by the addition of Ara-C or TPA, with the exception of herbimycin A, which was added 12 hours prior to Ara-C or TPA, and tyrphostins A25 and B46, which were each added 16 hours prior to MDR1 induction by the addition of Ara-C or TPA. Cells were incubated overnight (TPA) or for 10 hours (Ara-C) at 37° C./ 5% CO2 after the addition of the MDR1 inducing agents before harvesting for cDNA-PCR analysis.
In addition, the analysis of certain drugs imposed added requirements. For experiments using calphostin C, cells were incubated under direct white light illumination. For experiments using D,L-threo-sphingosine, the cell culture medium was pre-treated with the appropriate concentration of the drug for one hour at 37° C. with continuous gentle mixing. After this pretreatment, cells were resuspended in media supplemented with drug and incubated for 45 minutes as described above.
To further evaluate the capacity of protein kinase inhibitors to suppress MDR1 induction by cytotoxic drugs and PKC agonists, H-9 human T-cell leukemia cells were used in cDNA-PCR assays to examine induced MDR1 mRNA expression levels in the presence of protein kinase inhibitors.

[2] = tested on: MDR1 expression (P-glycoprotein); assay: Induction of MDR1 expression by cytotoxic drugs (dye efflux, UIC2, cDNA-PCR); assay type: cell-based, human
Description: (§1) (Commercially-available kits (for example, from GIBCO/BRL, Gaithersburg, Md.) can be advantageously modified for making cDNA using random hexamers.) PCR is then performed using the following primers: […]
(§2) (where β2 M represents β2 microglobulin). PCR was performed for β2 M experiments under a regime consisting of 1 cycle comprising denaturation at 94° C. for 3 minutes, primer annealing at 60° C. for 30 seconds, and primer extension at 72° C. for 1 minute, followed by 19 cycles comprising denaturation at 94° C. for 30 seconds, primer annealing at 60° C. for 30 seconds, and primer extension at 72° C. for 1 minute, followed by a final cycle comprising denaturation at 94° C. for 30 seconds, primer annealing at 60° C. for 30 seconds, and primer extension at 72° C. for 5 minutes. MDR1 cDNA sequences were amplified using the identical protocol as for β2 M, but extending the amplification from 19 cycles to 25 cycles. In addition, the cDNA-PCR amplification protocol contained the following modifications: (i) Taq DNA polymerase was added to the PCR mixtures after initial heating of the samples to 94° C. (ii) The yield of the β2 -microglobulin-specific band, obtained after 22-28 cycles of PCR, was used as the primary criterion for equalizing the starting amounts of the cDNA templates in different preparations, in order to account for differential RNA degradation in cells subjected to different types of treatment. ^32 P-labeled PCR products were detected by autoradiography.
In particular PKC is activated by treatment with Ara-C. Therefore, experiments were performed to test whether Ara-C, which is not transported by P-glycoprotein, would have any effect on P-glycoprotein function in K562 leukemia cells.
Also assayed was whether drug-induced MDR1 expression was maintained after cytotoxic drug treatment. […] At different times, MDR1 expression in the surviving cells was analyzed by dye efflux and immunofluorescence labeling with UIC2 (FIG. 3C) or by cDNA-PCR (FIG. 4E).

MDR1 expression [3] = assay: Inhibition of cytotoxic drug-induced MDR1 expression by cytoplasmic calcium antagonists and calmodulin inhibitors; assay type: cell-based, human; details: H9; for inhibition of AraC-induced MDR1 gene expression: 10 μM calmidazolium chloride, 25 μM AraC
Description: H9 cells were incubated as described above in the presence of the following cytotoxic drugs: Ara C (at a concentration of 25 μM), Adriamycin (2 μM), bleomycin (100 μg/ml), 2-deoxyglucose (10 mM) and nocodazole (2.5 μM). In parallel, cultures of H9 cells were incubated in the presence of each of these cytotoxic drugs and of a highly specific chelator of intracellular calcium ion, 1, 2-bis(o-aminophenoxy)-ethane-N,N,N',N'-tetraacetic acid, tetra(acetoxymethyl)-ester (BAPTA/AM) at a concentration of 5 μM for 10 hrs. under the conditions described above. The inhibitor was added 45 min. prior to the addition of each of the MDR1 inducing agents. cDNA-PCR analysis, including gel electrophoresis and autoradiography as described above, was performed for each culture after drug treatment in the presence or absence of this chelator.
H9 cells were incubated as above with 25 μM AraC in the presence or absence of 10 μM calmidazolium chloride, and cDNA-PCR analysis as described above was performed.

[4] = tested on: MDR1 expression (P-glycoprotein); assay: MDR1/P-glycoprotein expression in human cells treated with TPA, DOG, other agents (Rh123 accumulation, UIC2 staining, cDNA-PCR); assay type: cell-based
Description: KG1 cell line was maintained in Iscove's modified Dulbecco medium with 20% fetal calf serum (FCS) and 2 mM L-glutamine, 100 units/mL penicillin and 100 μg/mL streptomycin (GIBCO Laboratories, Grand Island, N.Y.).
PBL were treated with 1 ng/mL TPA; H9 and K562 cells with 10 ng/mL TPA; KG1a and KG1 cells with 100 ng/mL TPA and the other cell lines with 10 ng/mL TPA.
Mouse IgG2a isotype control antibody was obtained from Sigma. For staining of PBL with UIC2 mAb or isotype control, 10^6 cells were stained at 4° C. with 10 μg of the antibody for 30 minutes and, after two washes, stained for 30 minutes with 10 μg of FITC-conjugated goat anti-mouse IgG2a antibody (Fisher Scientific, Fairlawn, N.J.), diluted 1:2 with PBS plus 2% FCS. Cells were then washed twice with ice-cold PBS plus 2% FCS, stained with PI and kept on ice until analysis. Essentially the same protocol was used for staining of other cell types except that 2 μg of the secondary antibody were used per 10^6 cells. In some experiments, phycoerythrine (PE)-conjugated goat anti-mouse IgG2a was used as the secondary antibody; no PI was added in such cases.
as §1, §2
A functional assay was used to detect changes in P-glycoprotein activity in human PBL treated with different agents that induce lymphoid differentiation or activation, based on flow cytometric analysis of cellular accumulation of Rh123, which is a P-glycoprotein-transported fluorescent mitochondrial dye. In this assay, cells expressing little or no P-glycoprotein stain brightly with Rh123, whereas cells with higher levels of P-glycoprotein activity appear Rh123-dull. […] Since the best-known cellular effect of TPA is the stimulation of PKC, DOG (a cell-permeable diacylglycerol and a physiological stimulant of PKC) was also tested to determine its effects on Rh123 accumulation in PBL.

[5] = human leukemia and solid-tumor derived cell lines, short-term exposure
[6] = 50-100 μM tyrphostin, H-9 cells

SMILES: CCCCCCCCCCCCC/C=C/[C@H](O)[C@@H](N)CO (relative stereo) [D,L-threo-sphingosine]
- inhibition of Ara-C induced MDR1 expression (MDR1 expression [1]; 5 μM D,L-threo-sphingosine): little or no capacity to inhibit Ara-C induced MDR1 expression; also recorded: ineffective
- Inhibition of Ara-C induced MDR1 expression (MDR1 expression [1]; 5 μM, H-9, 25 μM Ara-C 10 h): -

SMILES: O=c1[nH]cc(F)c(=O)[nH]1 [5-fluorouracil]
- MDR1 induction [2]: MDR1 induction, both at the mRNA and at the protein levels, was observed

SMILES: COc1cccc2c1C(=O)c1c(O)c3c(c(O)c1C2=O)C[C@@](O)(C(=O)CO)C[C@@H]3O[C@H]1C[C@H](N)[C@H](O)[C@H](C)O1 [Adriamycin, Doxorubicin]
- Rh123 or DiOC2(3) efflux by treated cells ([2]; K562): 3-10%
- MDR1 mRNA expression ([2]; K562, cDNA-PCR): induce MDR1 mRNA expression
- maintenance of MDR1 expression after removal of drug ([2]; K562 subpopulation, treated 3-5 days then drug-free): maintained for a least several weeks
- MDR1 mRNA expression ([2]; KB-3-1 epidermoid carcinoma): MDR1 mRNA expression was induced
- MDR1 induction [2, 5]: MDR1 induction, both at the mRNA and at the protein levels, was observed

SMILES: CC(=O)OCOC(=O)CN(CC(=O)OCOC(C)=O)c1ccccc1OCCOc1ccccc1N(CC(=O)OCOC(C)=O)CC(=O)OCOC(C)=O [BAPTA/AM, 1,2-bis(o-aminophenoxy)ethane-N,N,N',N'-tetraacetic acid, tetra(acetoxymethyl)ester]
- inhibition of MDR1 induction by 2-deoxyglucose (10 mM) (MDR1 expression [3]; 5 μM BAPTA/AM): completely abrogate the induction of MDR1 expression
- inhibition of MDR1 induction by Adriamycin (2 μM) (MDR1 expression [3]; 5 μM BAPTA/AM): completely abrogate the induction of MDR1 expression
- inhibition of MDR1 induction by Ara C (25 μM) (MDR1 expression [3]; 5 μM BAPTA/AM): completely abrogate the induction of MDR1 expression
- inhibition of MDR1 induction by bleomycin (100 μg/ml) (MDR1 expression [3]; 5 μM BAPTA/AM): completely abrogate the induction of MDR1 expression
- inhibition of MDR1 induction by different cytotoxic agents (MDR1 expression [3]; 5 μM BAPTA/AM): completely abrogated the induction of MDR1 expression
- inhibition of MDR1 induction by nocodazole (2.5 μM) (MDR1 expression [3]; 5 μM BAPTA/AM): completely abrogate the induction of MDR1 expression
- time prior to addition of MDR1 inducers within which inhibitory effect was detectable (MDR1 expression [3]; BAPTA/AM): ≤ 3 h

SMILES: CCCCCCCC(=O)OCC(CO)OC(=O)CCCCCCC (centres unmarked) [DOG, 1,2-dioctanoylglycerol]
- effect on P-glycoprotein activity (Rh123 accumulation) ([4]; human PBL): decrease Rh123 accumulation
- MDR1 gene expression ([4]; normal human PBL and leukemia/solid tumor cell lines): increase MDR1 gene expression

SMILES: CC1CNCCN1S(=O)(=O)c1cccc2cnccc12 (centres unmarked) [H7]
- prevention of MDR1 induction by chemotherapeutic drugs (MDR1 expression [1]): prevent MDR1 induction by chemotherapeutic drugs
- inhibition of MDR1 induction by cytotoxic drugs (MDR1 expression [1]): capable of inhibiting MDR1 induction by cytotoxic drugs

SMILES: Clc1ccc(C(c2ccc(Cl)cc2)n2cc[n+](CC(OCc3ccc(Cl)cc3Cl)c3ccc(Cl)cc3Cl)c2)cc1 (centres unmarked) [calmidazolium chloride]
- inhibition of AraC-induced MDR1 gene expression (MDR1 expression [3]): inhibit AraC-induced MDR1 gene expression
- inhibition of AraC-induced MDR1 gene expression (MDR1 expression [3]; listed as Calmidazolium chloride): efficiently abrogate AraC induction of MDR1 expression

SMILES: COc1c(CC(C)OC(=O)Oc2ccc(O)cc2)c2c3c(CC(C)OC(=O)c4ccccc4)c(OC)c(=O)c4c(O)cc(OC)c(c5c(OC)cc(O)c(c1=O)c52)c43 (centres unmarked) [calphostin C]
- inhibitory capacity on Ara-C induced MDR1 expression (MDR1 expression [1]; 0.1 μM calphostin C + white light): greatly reduced
- inhibition of Ara-C induced MDR1 expression (MDR1 expression [1]; 1 μM calphostin C + white light): capable of inhibiting MDR1 expression; also recorded: prevent MDR1 induction by chemotherapeutic drugs
- inhibition of MDR1 induction by cytotoxic drugs (MDR1 expression [1]): capable of inhibiting MDR1 induction by cytotoxic drugs

SMILES: N.N.[Cl][Pt][Cl] [cisplatin]
- Rh123 or DiOC2(3) efflux by treated cells ([2]; K562): 3-10%
- MDR1 mRNA expression ([2]; K562, cDNA-PCR): induce MDR1 mRNA expression
- MDR1 induction [2, 5]: MDR1 induction, both at the mRNA and at the protein levels, was observed

SMILES: COc1cccc2c1C(=O)c1c(O)c3c(c(O)c1C2=O)C[C@@](O)(C(C)=O)C[C@@H]3O[C@H]1C[C@H](N)[C@H](O)[C@H](C)O1 [daunorubicin]
- MDR1 induction [2]: MDR1 induction, both at the mRNA and at the protein levels, was observed
- MDR1 mRNA expression [2]: induce MDR1 mRNA expression
- Rh123 or DiOC2(3) efflux by treated cells [2]: 3-10%

SMILES: COc1cc([C@@H]2c3cc4c(cc3[C@@H](O[C@@H]3O[C@@H]5CO[C@@H](C)O[C@H]5[C@H](O)[C@H]3O)[C@H]3COC(=O)[C@H]23)OCO4)cc(OC)c1O [etoposide]
- MDR1 induction [2]: MDR1 induction, both at the mRNA and at the protein levels, was observed

SMILES: O=c1c(-c2ccc(O)cc2)coc2cc(O)cc(O)c12 [genistein]
- Inhibition of Ara-C induced MDR1 expression (MDR1 expression [1]): +
- inhibition of Ara-C induced MDR1 expression (MDR1 expression [1]): only weakly inhibited Ara-C induced MDR1 expression

SMILES: COC1C=CC=C(C)C(=O)NC2=CC(=O)C=C(C2=O)C(OC)C(C)CC(OC)C(OC)C(C)C=C(C)C1OC(N)=O (centres unmarked) [herbimycin A]
- inhibition of Ara-C induced MDR1 expression (MDR1 expression [1]; 0.35-3 μM herbimycin A): little or no capacity to inhibit Ara-C induced MDR1 expression; also recorded: ineffective at inhibiting MDR1 induction by Ara-C

SMILES: NC(=O)NO [hydroxyurea]
- MDR1 induction [2]: MDR1 induction, both at the mRNA and at the protein levels, was observed
- MDR1 mRNA expression [2]: induce MDR1 mRNA expression
- Rh123 or DiOC2(3) efflux by treated cells ([2]; K562): 3-10%

SMILES: CN(Cc1cnc2nc(N)nc(N)c2n1)c1ccc(C(=O)N[C@@H](CCC(=O)O)C(=O)O)cc1 [methotrexate]
- MDR1 induction [2]: MDR1 induction, both at the mRNA and at the protein levels, was observed
- maintenance of MDR1 expression after removal of drug [2]: maintained for a least several weeks

SMILES: N#CC(C#N)=Cc1cc(O)c(O)c(O)c1 [tyrphostin A25]
- inhibition of Ara-C induced MDR1 expression (MDR1 expression [1]; [6]): strongly inhibit Ara-C induced MDR1 expression; also recorded: inhibit Ara-C induced MDR1 expression

SMILES: N#CC(=Cc1ccc(O)c(O)c1)C(=O)NCCCc1ccccc1 [tyrphostin B46]
- inhibition of Ara-C induced MDR1 expression (MDR1 expression [1]; [6]): strongly inhibit Ara-C induced MDR1 expression; also recorded: inhibit Ara-C induced MDR1 expression
